Laboratory results reported in PubChem BioAssay (NCI).
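Five concentrations, 48 hours, 96-well plates. GI50 = concentration required for 50% inhibition of growth. At the TGI there is no net growth.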

How the values were obtained:
Test in all cases: NCI tumour cell line growth inhibition, 48 h
SNB-75 CNS = tested on: SNB-75 CNS
PC-3 prostate = tested on: PC-3 prostate
IGROV1 ovarian = tested on: IGROV1 ovarian
HT29 colon = tested on: HT29 colon
786-0 renal = tested on: 786-0 renal
HS 578T breast = tested on: HS 578T breast
CCRF-CEM leukemia = tested on: CCRF-CEM leukemia
MCF7 breast = tested on: MCF7 breast
SK-MEL-2 melanoma = tested on: SK-MEL-2 melanoma
TK-10 renal = tested on: TK-10 renal
OVCAR-8 ovarian = tested on: OVCAR-8 ovarian
COLO 205 colon = tested on: COLO 205 colon
SK-MEL-28 melanoma = tested on: SK-MEL-28 melanoma
MALME-3M melanoma = tested on: MALME-3M melanoma
OVCAR-5 ovarian = tested on: OVCAR-5 ovarian
SW-620 colon = tested on: SW-620 colon
SNB-19 CNS = tested on: SNB-19 CNS
CAKI-1 renal = tested on: CAKI-1 renal
BT-549 breast = tested on: BT-549 breast
ACHN renal = tested on: ACHN renal
UACC-257 melanoma = tested on: UACC-257 melanoma
UACC-62 melanoma = tested on: UACC-62 melanoma
MDA-MB-435 = tested on: MDA-MB-435
NCI-H522 lung = tested on: NCI-H522 lung
HL-60(TB) leukemia = tested on: HL-60(TB) leukemia
OVCAR-3 ovarian = tested on: OVCAR-3 ovarian
SF-268 CNS = tested on: SF-268 CNS
LOX IMVI melanoma = tested on: LOX IMVI melanoma
SF-539 CNS = tested on: SF-539 CNS
SR leukemia = tested on: SR leukemia
NCI/ADR-RES ovarian = tested on: NCI/ADR-RES ovarian
DU-145 prostate = tested on: DU-145 prostate
NCI-H226 lung = tested on: NCI-H226 lung
HOP-62 NSCLC = tested on: HOP-62 NSCLC
RXF 393 renal = tested on: RXF 393 renal
MOLT-4 leukemia = tested on: MOLT-4 leukemia
NCI-H23 lung = tested on: NCI-H23 lung
SN12C renal = tested on: SN12C renal
MDA-MB-231 breast = tested on: MDA-MB-231 breast
NCI-H460 lung = tested on: NCI-H460 lung
A549 NSCLC = tested on: A549 NSCLC
U251 CNS = tested on: U251 CNS
HOP-92 NSCLC = tested on: HOP-92 NSCLC
HCT-15 colon = tested on: HCT-15 colon
A498 renal = tested on: A498 renal
M14 melanoma = tested on: M14 melanoma
KM12 colon = tested on: KM12 colon
SF-295 CNS = tested on: SF-295 CNS
UO-31 renal = tested on: UO-31 renal
OVCAR-4 ovarian = tested on: OVCAR-4 ovarian
EKVX NSCLC = tested on: EKVX NSCLC
SK-MEL-5 melanoma = tested on: SK-MEL-5 melanoma
SK-OV-3 ovarian = tested on: SK-OV-3 ovarian
HCC-2998 colon = tested on: HCC-2998 colon
T-47D breast = tested on: T-47D breast
K-562 leukemia = tested on: K-562 leukemia
HCT-116 colon = tested on: HCT-116 colon
RPMI-8226 leukemia = tested on: RPMI-8226 leukemia

`COc1cc2nc(-c3ccc(C(F)(F)F)cc3)cc(OCCCN3CCC(O)CC3)c2cc1OC` gave a GI50 (SNB-75 CNS) of 2.58 µM, a TGI (SNB-75 CNS) of 10.8 µM and a GI50 (PC-3 prostate) of 3.66 µM. For the same compound, the TGI (PC-3 prostate) was 19.5 µM, the GI50 (IGROV1 ovarian) was 0.9 µM and the TGI (IGROV1 ovarian) was 18.2 µM. It also gave a GI50 (HT29 colon) of 0.486 µM, a TGI (HT29 colon) of 10.4 µM and a GI50 (786-0 renal) of 4.72 µM. It also gave a TGI (786-0 renal) of 19.8 µM, a GI50 (HS 578T breast) of 3.75 µM and a TGI (HS 578T breast) of 20.9 µM. The GI50 (CCRF-CEM leukemia) was 3.27 µM, the TGI (CCRF-CEM leukemia) was 17.7 µM and the GI50 (MCF7 breast) was 2.57 µM. For the same compound, the TGI (MCF7 breast) was 18.2 µM, the GI50 (SK-MEL-2 melanoma) was 3.85 µM and the TGI (SK-MEL-2 melanoma) was 16.5 µM. The GI50 (TK-10 renal) was 11.5 µM, the TGI (TK-10 renal) was 25.7 µM and the GI50 (OVCAR-8 ovarian) was 1.66 µM. The TGI (OVCAR-8 ovarian) was 22.2 µM, the GI50 (COLO 205 colon) was 0.456 µM and the TGI (COLO 205 colon) was 12.1 µM. It also gave a GI50 (SK-MEL-28 melanoma) of 2.38 µM, a TGI (SK-MEL-28 melanoma) of 11.5 µM and a GI50 (MALME-3M melanoma) of 2.65 µM. It also gave a TGI (MALME-3M melanoma) of 11.8 µM, a GI50 (OVCAR-5 ovarian) of 3.14 µM and a TGI (OVCAR-5 ovarian) of 20.7 µM. It also gave a GI50 (SW-620 colon) of 3.53 µM, a TGI (SW-620 colon) of 14.8 µM and a GI50 (SNB-19 CNS) of 10.5 µM. It also gave a TGI (SNB-19 CNS) of 28.3 µM, a GI50 (CAKI-1 renal) of 0.376 µM and a TGI (CAKI-1 renal) of 13.1 µM. The GI50 (BT-549 breast) was 6.59 µM, the TGI (BT-549 breast) was 22.1 µM and the GI50 (ACHN renal) was 3.18 µM. It also gave a TGI (ACHN renal) of 16.7 µM, a GI50 (UACC-257 melanoma) of 2.28 µM and a TGI (UACC-257 melanoma) of 6.5 µM. The GI50 (UACC-62 melanoma) was 2.61 µM, the TGI (UACC-62 melanoma) was 7.28 µM and the GI50 (MDA-MB-435) was 2.76 µM. It also gave a TGI (MDA-MB-435) of 9.31 µM, a GI50 (NCI-H522 lung) of 4.15 µM and a TGI (NCI-H522 lung) of 19.3 µM. It also gave a GI50 (HL-60(TB) leukemia) of 13.9 µM, a TGI (HL-60(TB) leukemia) of 31.9 µM and a GI50 (OVCAR-3 ovarian) of 6.1 µM. It also gave a TGI (OVCAR-3 ovarian) of 22.2 µM, a GI50 (SF-268 CNS) of 5.76 µM and a TGI (SF-268 CNS) of 24.7 µM. The GI50 (LOX IMVI melanoma) was 0.19 µM, the TGI (LOX IMVI melanoma) was 0.447 µM and the GI50 (SF-539 CNS) was 5.75 µM. For the same compound, the TGI (SF-539 CNS) was 20.8 µM, the GI50 (SR leukemia) was 0.274 µM and the TGI (SR leukemia) was 16.6 µM. For the same compound, the GI50 (NCI/ADR-RES ovarian) was 0.847 µM, the TGI (NCI/ADR-RES ovarian) was 22.7 µM and the GI50 (DU-145 prostate) was 4.96 µM. It also gave a TGI (DU-145 prostate) of 20.4 µM, a GI50 (NCI-H226 lung) of 1.59 µM and a TGI (NCI-H226 lung) of 5.37 µM. It also gave a GI50 (HOP-62 NSCLC) of 1.8 µM, a TGI (HOP-62 NSCLC) of 15 µM and a GI50 (RXF 393 renal) of 1.34 µM. The TGI (RXF 393 renal) was 7.53 µM, the GI50 (MOLT-4 leukemia) was 3.27 µM and the TGI (MOLT-4 leukemia) was 18.4 µM. The GI50 (NCI-H23 lung) was 6.16 µM, the TGI (NCI-H23 lung) was 21 µM and the GI50 (SN12C renal) was 1.44 µM. For the same compound, the TGI (SN12C renal) was 19.7 µM, the GI50 (MDA-MB-231 breast) was 0.919 µM and the TGI (MDA-MB-231 breast) was 15.6 µM. The GI50 (NCI-H460 lung) was 0.835 µM, the TGI (NCI-H460 lung) was 16 µM and the GI50 (A549 NSCLC) was 1.65 µM. It also gave a TGI (A549 NSCLC) of 18.4 µM, a GI50 (U251 CNS) of 2.12 µM and a TGI (U251 CNS) of 20.6 µM. The GI50 (HOP-92 NSCLC) was 1.68 µM, the TGI (HOP-92 NSCLC) was 9.64 µM and the GI50 (HCT-15 colon) was 0.667 µM. It also gave a TGI (HCT-15 colon) of 13.8 µM, a GI50 (A498 renal) of 2.37 µM and a TGI (A498 renal) of 10.3 µM. For the same compound, the GI50 (M14 melanoma) was 0.535 µM, the TGI (M14 melanoma) was 2.26 µM and the GI50 (KM12 colon) was 6.87 µM. For the same compound, the TGI (KM12 colon) was 24 µM, the GI50 (SF-295 CNS) was 1.61 µM and the TGI (SF-295 CNS) was 3.83 µM. For the same compound, the GI50 (UO-31 renal) was 2.71 µM, the TGI (UO-31 renal) was 14.6 µM and the GI50 (OVCAR-4 ovarian) was 9.14 µM. For the same compound, the TGI (OVCAR-4 ovarian) was 22 µM, the GI50 (EKVX NSCLC) was 1.03 µM and the TGI (EKVX NSCLC) was 21.7 µM. For the same compound, the GI50 (SK-MEL-5 melanoma) was 1.43 µM, the TGI (SK-MEL-5 melanoma) was 4.72 µM and the GI50 (SK-OV-3 ovarian) was 10.6 µM. The TGI (SK-OV-3 ovarian) was 25.3 µM, the GI50 (HCC-2998 colon) was 4.07 µM and the TGI (HCC-2998 colon) was 19.9 µM. For the same compound, the GI50 (T-47D breast) was 2.97 µM, the TGI (T-47D breast) was 19.1 µM and the GI50 (K-562 leukemia) was 1.79 µM. The TGI (K-562 leukemia) was 16.7 µM, the GI50 (HCT-116 colon) was 0.671 µM and the TGI (HCT-116 colon) was 17.2 µM.
With `Nc1ccccc1-c1noc(=O)[nH]1` the TGI (SNB-75 CNS) was greater than 100 µM, the TGI (PC-3 prostate) was greater than 100 µM and the TGI (IGROV1 ovarian) was greater than 100 µM. It also gave a TGI (HT29 colon) greater than 100 µM, a TGI (786-0 renal) greater than 100 µM and a TGI (HS 578T breast) greater than 100 µM. The TGI (CCRF-CEM leukemia) was greater than 100 µM, the TGI (MCF7 breast) was greater than 100 µM and the TGI (SK-MEL-2 melanoma) was greater than 100 µM. The TGI (TK-10 renal) was greater than 100 µM, the TGI (OVCAR-8 ovarian) was greater than 100 µM and the TGI (COLO 205 colon) was greater than 100 µM. The TGI (SK-MEL-28 melanoma) was greater than 100 µM, the TGI (OVCAR-5 ovarian) was greater than 100 µM and the TGI (SW-620 colon) was greater than 100 µM. It also gave a TGI (SNB-19 CNS) greater than 100 µM, a TGI (CAKI-1 renal) greater than 100 µM and a TGI (BT-549 breast) greater than 100 µM. For the same compound, the TGI (ACHN renal) was greater than 100 µM, the TGI (UACC-257 melanoma) was greater than 100 µM and the TGI (UACC-62 melanoma) was greater than 100 µM. For the same compound, the TGI (MDA-MB-435) was greater than 100 µM, the TGI (NCI-H522 lung) was greater than 100 µM and the TGI (OVCAR-3 ovarian) was greater than 100 µM. It also gave a TGI (SF-268 CNS) greater than 100 µM, a TGI (RPMI-8226 leukemia) greater than 100 µM and a TGI (LOX IMVI melanoma) greater than 100 µM. For the same compound, the TGI (SF-539 CNS) was greater than 100 µM, the TGI (SR leukemia) was greater than 100 µM and the TGI (NCI/ADR-RES ovarian) was greater than 100 µM. For the same compound, the TGI (DU-145 prostate) was greater than 100 µM, the TGI (NCI-H226 lung) was greater than 100 µM and the TGI (HOP-62 NSCLC) was greater than 100 µM. It also gave a TGI (RXF 393 renal) greater than 100 µM, a TGI (MOLT-4 leukemia) greater than 100 µM and a TGI (NCI-H23 lung) greater than 100 µM. For the same compound, the TGI (SN12C renal) was greater than 100 µM, the TGI (MDA-MB-231 breast) was greater than 100 µM and the TGI (A549 NSCLC) was greater than 100 µM. It also gave a TGI (U251 CNS) greater than 100 µM, a TGI (HOP-92 NSCLC) greater than 100 µM and a TGI (HCT-15 colon) greater than 100 µM. For the same compound, the TGI (A498 renal) was greater than 100 µM, the TGI (M14 melanoma) was greater than 100 µM and the TGI (KM12 colon) was greater than 100 µM. For the same compound, the TGI (SF-295 CNS) was greater than 100 µM, the TGI (UO-31 renal) was greater than 100 µM and the TGI (OVCAR-4 ovarian) was greater than 100 µM. For the same compound, the TGI (EKVX NSCLC) was greater than 100 µM, the TGI (SK-MEL-5 melanoma) was greater than 100 µM and the TGI (SK-OV-3 ovarian) was greater than 100 µM. For the same compound, the TGI (HCC-2998 colon) was greater than 100 µM, the TGI (T-47D breast) was greater than 100 µM and the TGI (K-562 leukemia) was greater than 100 µM. It also gave a TGI (HCT-116 colon) greater than 100 µM.
